# ChEMBL document CHEMBL3856213, “neo-Clerodane diterpenoids from Scutellaria barbata mediated inhibition of P-glycoprotein in MCF-7/ADR cells” (Eur J Med Chem, 2016)
# The source made the active and inactive calls. No cut-off for these calls is given here.
# Legend:
# [1] = Cytotoxicity against human MCF7 cells assessed as inhibition of cell survival rate after 48 hrs by MTT assay; assay type: functional, cell-based; conditions: MCF7, 48 h
# [2] = Cytotoxicity against human MCF7/ADR cells assessed as inhibition of cell survival rate after 48 hrs by MTT assay; assay type: functional, cell-based; conditions: NCI/ADR-RES
# [3] = system: NCI/ADR-RES; test: Reversal index, ratio of IC50 for human MCF7/ADR cells to IC50 for human MCF7 cells; assay type: functional
# [4] = Cytotoxicity against human MCF7 cells assessed as inhibition of cell survival rate at 50 uM after 48 hrs by MTT assay relative to control; assay type: functional; conditions: MCF7, 48 h
# [5] = system: NCI/ADR-RES; test: Inhibition of P-gp in human MCF7/ADR cells assessed as potentiation of adriamycin-induced cytotoxic activity at 20 uM after 48 hrs by MTT assay relative to control; assay type: cell-based
# [6] = system: NCI/ADR-RES; test: Inhibition of P-gp in human MCF7/ADR cells assessed as increase in intracellular adriamycin accumulation at 10 uM after 3 hrs by flow cytometry relative to control; assay type: cell-based
# [7] = system: NCI/ADR-RES; test: Inhibition of P-gp in human MCF7/ADR cells assessed as increase in intracellular adriamycin accumulation at 20 uM after 3 hrs by flow cytometry; assay type: cell-based
# [8] = system: NCI/ADR-RES; test: Inhibition of P-gp in human MCF7/ADR cells assessed as increase in intracellular rhodamine123 accumulation at 10 to 20 uM incubated for 4 hrs in dark condition by flow cytometry; assay type: cell-based
# [9] = system: NCI/ADR-RES; test: Inhibition of P-gp in human MCF7/ADR cells assessed as potentiation of adriamycin-induced cell death by measuring dead cell levels at 10 uM after 48 hrs by 7-AAD staining-based flow cytometry; parameters: scale not given: the % may be the effect or the level left
# [10] = system: NCI/ADR-RES; test: Inhibition of P-gp in human MCF7/ADR cells assessed as potentiation of adriamycin-induced cell death by measuring dead cell levels at 20 uM after 48 hrs by 7-AAD staining-based flow cytometry (reference value: 8.1%); parameters: scale not given: the % may be the effect or the level left
# [11] = system: NCI/ADR-RES; test: Inhibition of P-gp in human MCF7/ADR cells assessed as increase in intracellular adriamycin accumulation at 10 uM after 3 hrs by flow cytometry relative to verapamil; assay type: cell-based
# [12] = system: NCI/ADR-RES; test: Inhibition of P-gp in human MCF7/ADR cells assessed as increase in intracellular adriamycin accumulation at 20 uM after 3 hrs by flow cytometry relative to verapamil; assay type: cell-based
# [13] = system: NCI/ADR-RES; test: Inhibition of P-gp in human MCF7/ADR cells assessed as increase in intracellular adriamycin accumulation at 10 to 20 uM after 4 hrs by fluorescence microscopic analysis; assay type: cell-based
# [14] = Downregulation of P-gp expression in human MCF7/ADR cells at 10 uM after 36 hrs by Western blot method relative to control; assay type: functional, cell-based; conditions: NCI/ADR-RES
# [15] = Downregulation of P-gp expression in human MCF7/ADR cells at 20 uM after 36 hrs by Western blot method relative to control; assay type: functional, cell-based; conditions: NCI/ADR-RES
smiles,measurement,setting,value
COc1cccc2c1C(=O)c1c(O)c3c(c(O)c1C2=O)C[C@@](O)(C(=O)CO)C[C@@H]3O[C@H]1C[C@H](N)[C@H](O)[C@H](C)O1.Cl [DOXORUBICIN HYDROCHLORIDE],IC50,[1],1 µM
same,IC50,[2],58.8 µM
same,Ratio IC50,[3],58.8
CC1=CCC[C@H]2[C@@]1(C)[C@@H](OC(=O)c1cccnc1)[C@H](O)[C@](C)(O)[C@]2(C)CCC1=C(O)C(=O)OC1,inhibition at 50 µM,[4],28.5%
same,fold change (FC),[5],11.5
CC1=CC[C@@H](OC(=O)c2cccnc2)[C@H]2[C@@]1(C)[C@H]1O[C@@](O)(C(C)C)C(=O)O[C@@H]1[C@]1(C)O[C@@]3(CC[C@]21C)COC(=O)C3,inhibition at 50 µM,[4],20.6%
same,fold change (FC),[5],12.2
same,inhibition,[6],Active
same,inhibition,[7],Active
same,inhibition,[8],Active
CC(=O)O[C@@H](CC1=C(O)C(=O)OC1)[C@]1(C)[C@H]2CCC=C(C)[C@]2(C)[C@@H](OC(=O)c2cccnc2)[C@H](OC(=O)c2cccnc2)[C@]1(C)O,inhibition at 50 µM,[4],17.1%
same,fold change (FC),[5],3.3
CC1=CC[C@@H](OC(=O)c2ccccc2)[C@H]2[C@@]1(C)[C@@H](OC(=O)c1cccnc1)[C@H](O)[C@]1(C)O[C@@]3(CC[C@]21C)COC(=O)C3,inhibition at 50 µM,[4],41.3%
same,fold change (FC),[5],33.4
same,inhibition,[6],Active
same,inhibition,[7],Active
same,inhibition,[8],Active
CC(=O)OC(C(=O)O[C@H]1[C@H](OC(=O)c2cccnc2)[C@@]2(C)C(C)=CCC[C@@H]2[C@@](C)(CCC2=C(O)C(=O)OC2)[C@@]1(C)O)C(C)C (stereo not given in full),inhibition at 50 µM,[4],37.6%
same,fold change (FC),[5],3
COc1ccc(CCN(C)CCCC(C#N)(c2ccc(OC)c(OC)c2)C(C)C)cc1OC (stereo not given),fold change (FC),[5],20.4
same,fold change (FC),[6],2.1
same,Activity,[9],46.7%
CC(=O)O[C@H]1[C@H](OC(=O)c2cccnc2)[C@@]2(C)C(C)=CC[C@@H](O)[C@@H]2[C@@]2(C)[C@@H](OC(=O)c3cccnc3)C[C@@]3(COC(=O)C3)O[C@@]12C,inhibition at 50 µM,[4],14.3%
same,fold change (FC),[5],29.1
same,inhibition,[6],Active
same,inhibition,[7],Active
same,inhibition,[8],Active
CC1=CC[C@@H](OC(=O)c2cccnc2)[C@H]2[C@@]1(C)[C@@H](OC(=O)c1cccnc1)[C@H](OC(=O)c1ccccc1)[C@]1(C)O[C@]3(CC[C@]21C)COC(=O)C3,inhibition at 50 µM,[4],13.6%
same,fold change (FC),[5],45.3
same,fold change (FC),[6],2.89
same,inhibition,[7],Active
same,Activity,[10],89.2%
same,inhibition,[8],Active
same,Activity,[9],74.7%
same,fold change (FC),[11],1.5
same,fold change (FC),[12],1.8
same,inhibition,[13],Active
same,Activity,[14],27%
same,Activity,[15],32%
CC(=O)O[C@@H](CC1=C(O)C(=O)OC1)[C@]1(C)[C@H]2CCC=C(C)[C@]2(C)[C@@H](OC(=O)c2cccnc2)[C@H](OC(=O)c2ccccc2)[C@]1(C)O,inhibition at 50 µM,[4],23.1%
same,fold change (FC),[5],2
CC(=O)O[C@@H](CC1=C(O)C(=O)OC1)[C@]1(C)[C@H]2CCC=C(C)[C@]2(C)[C@@H](OC(=O)c2cccnc2)[C@H](O)[C@]1(C)O,inhibition at 50 µM,[4],18.5%
same,fold change (FC),[5],1.5
CC[C@]1(O)C[C@H]2CN(CCc3c([nH]c4ccccc34)[C@@](C(=O)OC)(c3cc4c(cc3OC)N(C=O)[C@H]3[C@@](O)(C(=O)OC)[C@H](OC(C)=O)[C@]5(CC)C=CCN6CC[C@]43[C@@H]65)C2)C1 [VINCRISTINE],IC50,[1],1.3 µM
same,IC50,[2],62.8 µM
same,Ratio IC50,[3],48.3
CC1=CCC[C@H]2[C@@]1(C)[C@@H](OC(=O)c1cccnc1)[C@H](OC(=O)c1cccnc1)[C@](C)(O)[C@]2(C)/C=C\C1=CC(=O)OC1,inhibition at 50 µM,[4],18.8%
same,fold change (FC),[5],13.1
CC1=CCC[C@H]2[C@@]1(C)[C@@H](OC(=O)c1cccnc1)[C@H](OC(=O)C(C)C)[C@](C)(O)[C@]2(C)/C=C/C1=CC(=O)OC1,inhibition at 50 µM,[4],19.1%
same,fold change (FC),[5],6.3
CC1=CCC[C@H]2[C@@]1(C)[C@@H](OC(=O)c1cccnc1)[C@H](OC(=O)c1ccccc1)[C@](C)(O)[C@]2(C)/C=C/C1=CC(=O)OC1,inhibition at 50 µM,[4],23.8%
same,fold change (FC),[5],10.1
CC(=O)O[C@H]1[C@H](OC(C)=O)[C@]2(C)O[C@]3(CC[C@]2(C)[C@H]2[C@H](OC(=O)c4cccnc4)CC=C(C)[C@]12C)COC(=O)C3,inhibition at 50 µM,[4],19.5%
same,fold change (FC),[5],13
same,inhibition,[8],Active
CC1=CC[C@@H](OC(=O)c2cccnc2)[C@H]2[C@@]1(C)[C@@H](OC(=O)c1cccnc1)[C@H](O)[C@]1(C)O[C@@]3(CC[C@]21C)COC(=O)C3,inhibition at 50 µM,[4],15.1%
same,fold change (FC),[5],11.4
same,inhibition,[6],Active
same,inhibition,[7],Active
same,inhibition,[8],Active
CC1=CC[C@@H](OC(=O)c2cccnc2)[C@H]2[C@@]1(C)[C@@H](OC(=O)c1cccnc1)[C@H](OC(=O)c1cccnc1)[C@]1(C)O[C@]3(CC[C@]21C)COC(=O)C3,inhibition at 50 µM,[4],40.6%
same,fold change (FC),[5],29.6
same,fold change (FC),[6],2.27
same,inhibition,[7],Active
same,inhibition,[8],Active
CC(=O)O[C@H]1[C@H](OC(=O)c2cccnc2)[C@@]2(C)C(C)=CC[C@@H](OC(=O)c3cccnc3)[C@@H]2[C@@]2(C)CC[C@@]3(COC(=O)C3)O[C@@]12C,inhibition at 50 µM,[4],35.7%
same,fold change (FC),[5],37.7
same,fold change (FC),[6],2.36
same,inhibition,[7],Active
same,inhibition,[8],Active
CC(=O)OC[C@@]12[C@@H](OC(C)=O)C[C@@H](C)[C@](C)(C3O[C@@H]4OC[C@@H](OC(=O)c5cccnc5)[C@@H]4[C@@H]3O)[C@H]1CCC[C@]21CO1 (stereo not given in full),inhibition at 50 µM,[4],25.2%
same,fold change (FC),[5],2.8
CC1=CC[C@@H](O)[C@H]2[C@@]1(C)[C@@H](OC(=O)c1cccnc1)[C@H](O)[C@]1(C)O[C@]3(COC(=O)C3)C[C@H](OC(=O)c3cccnc3)[C@]21C (relative stereo),inhibition at 50 µM,[4],14.6%
same,fold change (FC),[5],7.5
CC(=O)O[C@H]1[C@H](OC(=O)c2cccnc2)[C@@]2(C)C(C)=CC[C@@H](OC(=O)c3cccnc3)[C@@H]2[C@@]2(C)CC[C@]3(COC(=O)C3)O[C@@]12C,inhibition at 50 µM,[4],28.5%
same,fold change (FC),[5],16.7
same,inhibition,[6],Active
same,inhibition,[7],Active
same,inhibition,[8],Active
CC1=CC[C@@H](OC(=O)c2ccccc2)[C@H]2[C@@]1(C)[C@@H](OC(=O)c1cccnc1)[C@H](O)[C@]1(C)O[C@]3(CC[C@]21C)COC(=O)C3 (relative stereo),inhibition at 50 µM,[4],20.1%
same,fold change (FC),[5],17.8
same,inhibition,[6],Active
same,inhibition,[7],Active
same,inhibition,[8],Active
CC1=CC[C@@H](O)[C@H]2[C@@]1(C)[C@@H](OC(=O)c1cccnc1)[C@H](O)[C@]1(C)O[C@]3(COC(=O)C3O)C[C@H](OC(=O)c3cccnc3)[C@]21C (relative stereo),inhibition at 50 µM,[4],19.5%
same,fold change (FC),[5],7.9
CC(=O)OC(C(=O)O[C@H]1[C@H](OC(=O)c2cccnc2)[C@@]2(C)C(C)=CCC[C@@H]2[C@@](C)(/C=C/C2=CC(=O)OC2)[C@@]1(C)O)C(C)C (stereo not given in full),inhibition at 50 µM,[4],23.8%
same,fold change (FC),[5],11.4
CC(=O)O[C@@]12CO[C@@H]1C[C@H](O)[C@@]1(C)C(=O)[C@H](O)C3=C(C)[C@@H](OC(=O)[C@H](O)[C@@H](NC(=O)OC(C)(C)C)c4ccccc4)C[C@@](O)([C@@H](OC(=O)c4ccccc4)[C@H]21)C3(C)C [DOCETAXEL ANHYDROUS],IC50,[1],0.8 µM
same,IC50,[2],21.2 µM
same,Ratio IC50,[3],26.5
CC1=CCC[C@H]2[C@@]1(C)[C@@H](OC(=O)c1cccnc1)[C@H](OC(=O)c1cccnc1)[C@](C)(O)[C@]2(C)/C=C/C1=CC(=O)OC1,inhibition at 50 µM,[4],31.4%
same,fold change (FC),[5],4.6
CC(=O)O[C@H]1[C@H](OC(C)=O)[C@]2(C)O[C@@]3(CC[C@]2(C)[C@H]2[C@H](OC(=O)c4cccnc4)CC=C(C)[C@]12C)COC(=O)C3 (relative stereo),inhibition at 50 µM,[4],16.6%
same,fold change (FC),[5],11.5
same,inhibition,[6],Active
same,inhibition,[7],Active
same,inhibition,[8],Active
CC1=CCC[C@H]2[C@@]1(C)[C@@H](OC(=O)c1cccnc1)[C@H](OC(=O)c1ccccc1)[C@](C)(O)[C@]2(C)/C=C\C1=CC(=O)OC1,inhibition at 50 µM,[4],17.4%
same,fold change (FC),[5],9
